# Source: patent US8796256B2 (Janssen Pharmaceutica NV, priority 2010, dated 2014)
# pEC50: −log10 of the molar value.
# Molecular target: T1, ERR1 (also known as ERR-α or ERR-1) (Homo sapiens, UniProt P11474)
# T1 sequence (P11474 193-421 limits assumed): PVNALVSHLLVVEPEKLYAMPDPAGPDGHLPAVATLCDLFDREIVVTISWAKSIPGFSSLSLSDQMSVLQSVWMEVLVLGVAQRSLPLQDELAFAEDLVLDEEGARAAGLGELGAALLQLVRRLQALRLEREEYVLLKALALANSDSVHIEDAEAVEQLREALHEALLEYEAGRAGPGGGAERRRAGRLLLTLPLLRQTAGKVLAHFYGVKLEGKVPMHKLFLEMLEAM
# Test: TR-FRET assay (disruption of co-activator peptide binding to ERR1 LBD)
# Type: biochemical
# Conditions: 6 nM 6His-ERR1LBD, 6 nM GST-SRC-2 peptide; average of 3 independent experiments
# How it was run: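 Homogeneous TR-FRET measuring displacement of GST-hSRC2 co-activator peptide (6 nM) from His-tagged ERR1 LBD (6 nM), detected with α-GST Eu cryptate (30 nM) and α-His-XL665 (7.5 nM). Buffer 25 mM Tris pH 8, 2.5 mM Hepes, 20 mM KCl, 1 mM DTT, 0.05 mg/mL delipidated BSA; equilibration 4-18 h at 25° C. Hyperbolic dose-response fit, mean of 3 experiments.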
row,Structure (SMILES),pEC50
1,"CN1C[C@H](F)C[C@H]1CN1C(=O)S/C(=C\c2ccc3c(cnn3Cc3ccc(Cl)cc3C(F)(F)F)c2)C1=O [Compound 193, (5Z)-5-({1-[4-Chloro-2-(trifluoromethyl)benzyl]-1H-indazol-5-yl}methylidene)-3-{[(2S,4R)-4-fluoro-1-methylpyrrolidin-2-yl]methyl}-1,3-thiazolidine-2,4-dione]",6.80
2,"O=C1S/C(=C\c2ccc3c(cnn3Cc3ccc(C(F)(F)F)cc3C(F)(F)F)c2)C(=O)N1C[C@@H]1CNCCO1 [Compound 195, (5Z)-5-({1-[2,4-Bis(trifluoromethyl)benzyl]-1H-indazol-5-yl}methylidene)-3-[(2S)-morpholin-2-ylmethyl]-1,3-thiazolidine-2,4-dione]",7.21
3,"O=C1S/C(=C\c2ccc3c(cnn3Cc3ccc(C(F)(F)F)cc3C(F)(F)F)c2)C(=O)N1C[C@@H]1COCCN1 [Compound 197, (5Z)-5-({1-[2,4-Bis(trifluoromethyl)benzyl]-1H-indazol-5-yl}methylidene)-3-[(3R)-morpholin-3-ylmethyl]-1,3-thiazolidine-2,4-dione]",7.19
4,"O=C1S/C(=C\c2ccc3c(cnn3Cc3ccc(Cl)cc3C(F)(F)F)c2)C(=O)N1C[C@@H]1CN2CCC[C@H]2CO1 [Compound 203, (5Z)-5-({1-[4-Chloro-2-(trifluoromethyl)benzyl]-1H-indazol-5-yl}methylidene)-3-[(3S,8aS)-hexahydro-1H-pyrrolo[2,1-c] [1,4]oxazin-3-ylmethyl]-1,3-thiazolidine-2,4-dione]",7.28
5,"O=C1S/C(=C\c2ccc3c(cnn3Cc3ccc(Cl)cc3C(F)(F)F)c2)C(=O)N1C[C@@H]1CCCN2CCCC[C@H]12 [Compound 206, (5Z)-5-({1-[4-Chloro-2-(trifluoromethyl)benzyl]-1H-indazol-5-yl}methylidene)-3-[(1S,9aR)-octahydro-2H-quinolizin-1-ylmethyl]-1,3-thiazolidine-2,4-dione]",7.01
6,"O=C1S/C(=C\c2ccc3c(cnn3Cc3ccc(C(F)(F)F)cc3C(F)(F)F)c2)C(=O)N1C[C@@H]1CCCN2CCCC[C@H]12 [Compound 207, (5Z)-5-({1-[2,4-Bis(trifluoromethyl)benzyl]-1H-indazol-5-yl}methylidene)-3-[(1S,9aR)-octahydro-2H-quinolizin-1-ylmethyl]-1,3-thiazolidine-2,4-dione]",6.72
7,"O=C1S/C(=C\c2ccc3c(cnn3Cc3ccc(C(F)(F)F)cc3C(F)(F)F)c2)C(=O)N1C[C@H]1CN2CCC[C@H]2CO1 [Compound 208, (5Z)-5-({1-[2,4-Bis(trifluoromethyl)benzyl]-1H-indazol-5-yl}methylidene)-3-[(3R,8aS)-hexahydro-1H-pyrrolo[2,1-c][1,4]oxazin-3-ylmethyl]-1,3-thiazolidine-2,4-dione]",6.87
8,"COC(=O)C(C1CCOCC1)N1C(=O)S/C(=C\c2ccc3c(cnn3Cc3ccc(Cl)cc3C(F)(F)F)c2)C1=O (stereo not drawn) [Compound 209, Methyl [(5Z)-5-({1-[4-chloro-2-(trifluoromethyl)benzyl]-1H-indazol-5-yl}methylidene)-2,4-dioxo-1,3-thiazolidin-3-yl](tetrahydro-2H-pyran-4-yl)acetate]",7.06
9,"COC(=O)[C@H](COC(C)(C)C)N1C(=O)S/C(=C\c2ccc3c(cnn3Cc3ccc(Cl)cc3C(F)(F)F)c2)C1=O [Compound 210, Methyl (2S)-3-tert-butoxy-2-[(5Z)-5-({1-[4-chloro-2-(trifluoromethyl)benzyl]-1H-indazol-5-yl}methylidene)-2,4-dioxo-1,3-thiazolidin-3-yl]propanoate]",6.59
10,"CCOC(=O)C(Cc1ccccn1)N1C(=O)S/C(=C\c2ccc3c(cnn3Cc3ccc(Cl)cc3C(F)(F)F)c2)C1=O (stereo not drawn) [Compound 211, Ethyl 2-[(5Z)-5-({1-[4-chloro-2-(trifluoromethyl)benzyl]-1H-indazol-5-yl}methylidene)-2,4-dioxo-1,3-thiazolidin-3-yl]-3-pyridin-2-ylpropanoate]",7.04
11,"COC(=O)[C@@H](COC(C)(C)C)N1C(=O)S/C(=C\c2ccc3c(cnn3Cc3ccc(Cl)cc3C(F)(F)F)c2)C1=O [Compound 212, Methyl (2R)-3-tert-butoxy-2-[(5Z)-5-({1-[4-chloro-2-(trifluoromethyl)benzyl]-1H-indazol-5-yl}methylidene)-2,4-dioxo-1,3-thiazolidin-3-yl]propanoate]",6.60
12,"COC(=O)C(C1CCN(C(=O)OC(C)(C)C)CC1)N1C(=O)S/C(=C\c2ccc3c(cnn3Cc3ccc(Cl)cc3C(F)(F)F)c2)C1=O (stereo not drawn) [Compound 215, tert-Butyl 4-{1-[(5Z)-5-({1-[4-chloro-2-(trifluoromethyl)benzyl]-1H-indazol-5-yl}methylidene)-2,4-dioxo-1,3-thiazolidin-3-yl]-2-methoxy-2-oxoethyl}piperidine-1-carboxylate]",7.21
13,"O=C1S/C(=C\c2ccc3c(cnn3Cc3ccc(Cl)cc3C(F)(F)F)c2)C(=O)N1C1(C(=O)O)CCCCC1 [Compound 218, 1-[(5Z)-5-({1-[4-Chloro-2-(trifluoromethyl)benzyl]-1H-indazol-5-yl}methylidene)-2,4-dioxo-1,3-thiazolidin-3-yl]cyclohexanecarboxylic acid]",7.06

# The next compounds have a higher pEC50 than those just listed; values first:
row,pEC50,Structure (SMILES)
1,7.30,"O=C1S/C(=C\c2ccc3c(cnn3Cc3ccc(C(F)(F)F)cc3C(F)(F)F)c2)C(=O)N1C[C@H]1COCCN1 [Compound 196, (5Z)-5-({1-[2,4-Bis(trifluoromethyl)benzyl]-1H-indazol-5-yl}methylidene)-3-[(3S)-morpholin-3-ylmethyl]-1,3-thiazolidine-2,4-dione]"
2,7.34,"O=C1S/C(=C\c2ccc3c(cnn3Cc3ccc(Cl)cc3C(F)(F)F)c2)C(=O)N1C[C@H]1CN2CCOC[C@H]2CO1 [Compound 204, (5Z)-5-({1-[4-Chloro-2-(trifluoromethyl)benzyl]-1H-indazol-5-yl}methylidene)-3-[(3R,9aS)-hexahydro-1H-[1,4]oxazino[3,4-c] [1,4]oxazin-3-ylmethyl]-1,3-thiazolidine-2,4-dione]"
3,7.35,"CN1CCO[C@H](CN2C(=O)S/C(=C\c3ccc4c(cnn4Cc4ccc(Cl)cc4C(F)(F)F)c3)C2=O)C1 [Compound 192, (5Z)-5-({1-[4-Chloro-2-(trifluoromethyl)benzyl]-1H-indazol-5-yl}methylidene)-3-{[(2S)-4-methylmorpholin-2-yl]methyl}-1,3-thiazolidine-2,4-dione]"
4,7.36,"COC(=O)C(Cc1cn(C)cn1)N1C(=O)S/C(=C\c2ccc3c(cnn3Cc3ccc(Cl)cc3C(F)(F)F)c2)C1=O (stereo not drawn) [Compound 214, Methyl 2-[(5Z)-5-({1-[4-chloro-2-(trifluoromethyl)benzyl]-1H-indazol-5-yl}methylidene)-2,4-dioxo-1,3-thiazolidin-3-yl]-3-(1-methyl-1H-imidazol-4-yl)propanoate]"
5,7.39,"COC(=O)C(Cc1cccnc1)N1C(=O)S/C(=C\c2ccc3c(cnn3Cc3ccc(Cl)cc3C(F)(F)F)c2)C1=O (stereo not drawn) [Compound 217, Methyl 2-[(5Z)-5-({1-[4-chloro-2-(trifluoromethyl)benzyl]-1H-indazol-5-yl}methylidene)-2,4-dioxo-1,3-thiazilidin-3-yl]-3-pyridin-3-ylpropanoate]"
6,7.47,"NC1(CN2C(=O)S/C(=C\c3ccc4c(cnn4Cc4ccc(Cl)cc4C(F)(F)F)c3)C2=O)CC1 [Compound 194, (5Z)-3-[(1-Aminocyclopropyl)methyl]-5-({1-[4-chloro-2-(trifluoromethyl)benzyl]-1H-indazol-5-yl}methylidene)-1,3-thiazolidine-2,4-dione]"
7,7.48,"O=C(O)C(Cc1ccccn1)N1C(=O)S/C(=C\c2ccc3c(cnn3Cc3ccc(Cl)cc3C(F)(F)F)c2)C1=O (stereo not drawn) [Compound 216, 2-[(5Z)-5-({1-[4-Chloro-2-(trifluoromethyl)benzyl]-1H-indazol-5-yl}methylidene)-2,4-dioxo-1,3-thiazolidin-3-yl]-3-pyridin-2-ylpropanoic acid]"
8,7.51,"O=C1S/C(=C\c2ccc3c(cnn3Cc3ccc(Cl)cc3C(F)(F)F)c2)C(=O)N1C[C@@H]1COCCN1 [Compound 198, (5Z)-5-({1-[4-Chloro-2-(trifluoromethyl)benzyl]-1H-indazol-5-yl}methylidene)-3-[(3R)-morpholin-3-ylmethyl]-1,3-thiazolidine-2,4-dione]"
9,7.55,"COC(=O)C1(N2C(=O)S/C(=C\c3ccc4c(cnn4Cc4ccc(Cl)cc4C(F)(F)F)c3)C2=O)CCN(C)CC1 [Compound 213, Methyl 4-[(5Z)-5-({1-[4-chloro-2-(trifluoromethyl)benzyl]-1H-indazol-5-yl}methylidene)-2,4-dioxo-1,3-thiazolidin-3-yl]-1-methylpiperidine-4-carboxylate]"
10,7.66,"O=C1S/C(=C\c2ccc3c(cnn3Cc3ccc(Cl)cc3C(F)(F)F)c2)C(=O)N1C[C@@H]1CN2CCOC[C@H]2CO1 [Compound 205, (5Z)-5-({1-[4-Chloro-2-(trifluoromethyl)benzyl]-1H-indazol-5-yl}methylidene)-3-[(3S,9aS)-hexahydro-1H-[1,4]oxazino[3,4-c] [1,4]oxazin-3-ylmethyl]-1,3-thiazolidine-2,4-dione]"
11,7.72,"CN1C[C@H](O)C[C@H]1CN1C(=O)S/C(=C\c2ccc3c(cnn3Cc3ccc(Cl)cc3C(F)(F)F)c2)C1=O [Compound 191, (5Z)-5-({1-[4-Chloro-2-(trifluoromethyl)benzyl]-1H-indazol-5-yl}methylidene)-3-{[(2S,4R)-4-hydroxy-1-methylpyrrolidin-2-yl]methyl}-1,3-thiazolidine-2,4-dione]"
